Paper PMC9331314, “Synthesis and Antiviral Properties of Camphor-Derived Iminothiazolidine-4-Ones and 2,3-Dihydrothiazoles” (Molecules, 2022)
Like-named read-outs stand apart in the source and are kept apart here.

Legend:
[1] = tested on: vaccinia virus (strain Copenhagen)
[2] = tested on: vaccinia virus (strain Copenhagen); assay: microbe, parasite or virus in culture; details: Orthopoxvirus vaccinia, Vero, 96 h
[3] = in vitro; details: African green monkey
[4] = tested on: Vero cells
[5] = in vitro; details: human
[6] = tested on: Marburg pseudovirus (GP MARV); assay: microbe, parasite or virus in culture; details: 24 h
[7] = tested on: Marburg pseudovirus (GP MARV)
[8] = tested on: HEK293FT cells
[9] = tested on: VSV-GP-EboV; details: cited from earlier work
[10] = tested on: VV; details: cited from earlier work
[11] = tested on: H1N1; details: cited from earlier work

With `CC1(C)[C@H]2CC[C@]1(C)/C(=N/NC(=S)Nc1ccccc1)C2` [2′a, (E)-N-phenyl-2-((1S,4S)-1,7,7-trimethylbicyclo[2.2.1]heptan-2-ylidene)hydrazinecarbothioamide] as the molecule, how does the IC50 [1] read?
Its IC50 is “lower micromolar range”.

And the “SI (CC50/IC50)” value [1]?
The value was 4.

And the IC50 [2]?
The IC50 was 4.3 ± 1.8 µM.

And the CC50 [3]?
Its CC50 is 16 ± 2.8 µM.

And the CC50 [4]?
Its CC50 is “quite toxic”.

And the CC50 [5]?
The CC50 was 280 ± 38.6 µM.

And the IC50 [6]?
Its IC50 is 5.9 ± 2.1 µM.

With `CNC(=S)N/N=C1\C[C@@H]2CC[C@@]1(C)C2(C)C` [2′d, (E)-N-methyl-2-((1S,4S)-1,7,7-trimethylbicyclo[2.2.1]heptan-2-ylidene)hydrazinecarbothioamide] as the molecule, how does the IC50 [1] read?
The IC50 was “low”.

And the “SI (CC50/IC50)” value [1]?
The value was 5.

What about the “SI (CC50/IC50)” value [7] of the same molecule?
Its value is 2.

And the IC50 [2]?
The IC50 was 35 ± 5.8 µM.

What about the CC50 [3] of the same molecule?
The CC50 was 130 ± 14.2 µM.

And the CC50 [4]?
The CC50 was “least cytotoxicity”.

What about the CC50 [5] of the same molecule?
The CC50 was 66.9 ± 18.2 µM.

What about the IC50 [6] of the same molecule?
The IC50 was 29.2 ± 4.2 µM.

For `CC1(C)[C@@H]2CC[C@@]1(C)/C(=N/NC(=S)Nc1ccccc1)C2` [Compound 2a, (E)-N-phenyl-2-((1R,4R)-1,7,7-trimethylbicyclo[2.2.1]heptan-2-ylidene)hydrazinecarbothioamide], which IC50 [1] is on record?
The IC50 was “lower micromolar range”.

What about the “SI (CC50/IC50)” value [1] of the same molecule?
Its value is 4.

What about the “SI (CC50/IC50)” value [7] of the same molecule?
The value was 2.

What about the IC50 [2] of the same molecule?
The IC50 was 6.7 ± 0.9 µM.

And the CC50 [3]?
The CC50 was 24 ± 3.4 µM.

What about the CC50 [4] of the same molecule?
The CC50 was “quite toxic”.

And the CC50 [5]?
The CC50 was 700 ± 43.1 µM.

And the IC50 [6]?
The IC50 was 398 ± 33.2 µM.

Which IC50 [1] does the source give for `C=CCNC(=S)N/N=C1\C[C@H]2CC[C@]1(C)C2(C)C` [Compound 2b, (E)-N-allyl-2-((1R,4R)-1,7,7-trimethylbicyclo[2.2.1]heptan-2-ylidene)hydrazinecarbothioamide] here?
The IC50 was “low”.

What about the “SI (CC50/IC50)” value [7] of the same molecule?
The value was 5.

And the CC50 [3]?
The CC50 was 200 ± 23.8 µM.

What about the CC50 [4] of the same molecule?
Its CC50 is “least cytotoxicity”.

What about the CC50 [5] of the same molecule?
Its CC50 is 128 ± 37.8 µM.

And the IC50 [6]?
The IC50 was 24.5 ± 3.8 µM.

What does the source list for `CNC(=S)N/N=C1\C[C@H]2CC[C@]1(C)C2(C)C` [Compound 2d, (E)-N-methyl-2-((1R,4R)-1,7,7-trimethylbicyclo[2.2.1]heptan-2-ylidene)hydrazinecarbothioamide]?
IC50 [1]: low; SI (CC50/IC50) [1]: 2; IC50 [2]: 97 ± 19.8 µM; CC50 [3]: 150 ± 17.9 µM; CC50 [4]: least cytotoxicity; CC50 [5]: 62.8 ± 17.1 µM; IC50 [6]: 28 ± 4.2 µM

For `CC12CCC(CC1=NN=C1SCC(=O)N1c1ccccc1)C2(C)C` [Compound 3a, ((Z)-3-phenyl-2-((E)-((1R,4R)-1,7,7-trimethylbicyclo[2.2.1]heptan-2-ylidene)hydrazono)thiazolidin-4-one], which “SI (CC50/IC50)” value [7] is on record?
The value was 5.

And the CC50 [8]?
The CC50 was “least toxicity”.

What about the CC50 [3] of the same molecule?
The CC50 was 290 ± 39.1 µM.

What about the CC50 [5] of the same molecule?
The CC50 was 1260 ± 52.7 µM.

And the IC50 [6]?
The IC50 was 237 ± 5.9 µM.

Which results are given for `C=CCN1C(=O)C(C)(C)S/C1=N/N=C1/C[C@H]2CC[C@]1(C)C2(C)C` [Compound 4b, (Z)-3-allyl-5,5-dimethyl-2-((E)-((1R,4R)-1,7,7-trimethylbicyclo[2.2.1]heptan-2-ylidene)hydrazono)thiazolidin-4-one]?
SI (CC50/IC50) [7]: 4; CC50 [8]: least toxicity; CC50 [5]: 959.5 ± 6.8 µM; IC50 [6]: 255 ± 45 µM

Which results are given for `CN1C(=O)C(C)(C)S/C1=N/N=C1/C[C@H]2CC[C@]1(C)C2(C)C` [Compound 4d, (Z)-3,5,5-trimethyl-2-((E)-((1R,4R)-1,7,7-trimethylbicyclo[2.2.1]heptan-2-ylidene)hydrazono)thiazolidin-4-one]?
IC50 [1]: highest activity; SI (CC50/IC50) [1]: 24; SI (CC50/IC50) [7]: 13; IC50 [2]: 12.7 ± 1.4 µM; CC50 [3]: 310 ± 38.7 µM; CC50 [4]: low toxicity; CC50 [5]: 514 ± 34.1 µM; IC50 [6]: 39 ± 3.3 µM

What does the source list for `CC1(C)[C@@H]2CC[C@@]1(C)/C(=N/N=c1/scc(-c3ccc(Cl)cc3)n1-c1ccccc1)C2` [Compound 5a, (E)-4-(4-chlorophenyl)-3-phenyl-2-((E)-((1R,4R)-1,7,7-trimethylbicyclo[2.2.1]heptan-2-ylidene)hydrazono)-2,3-dihydrothiazole]?
SI (CC50/IC50) [7]: 8; CC50 [8]: least toxicity; CC50 [3]: 229 ± 24.7 µM; CC50 [5]: 872 ± 52.8 µM; IC50 [6]: 103 ± 6.9 µM

With `Cn1c(-c2ccc(Cl)cc2)cs/c1=N/N=C1\C[C@H]2CC[C@]1(C)C2(C)C` [Compound 5d, (E)-4-(4-chlorophenyl)-3-methyl-2-((E)-((1R,4R)-1,7,7-trimethylbicyclo[2.2.1]heptan-2-ylidene)hydrazono)-2,3-dihydrothiazole] as the molecule, how does the “SI (CC50/IC50)” value [7] read?
The value was 10.

What about the IC50 [2] of the same molecule?
Its IC50 is 2.6 ± 0.2 µM.

What about the CC50 [3] of the same molecule?
The CC50 was 144 ± 18.7 µM.

What about the CC50 [4] of the same molecule?
Its CC50 is “least toxic”.

And the CC50 [5]?
The CC50 was 107 ± 5.3 µM.

What about the IC50 [6] of the same molecule?
The IC50 was 10.7 ± 2.7 µM.

Which “SI (CC50/IC50)” value [1] does the source give for `Cn1c(-c2ccccc2)cs/c1=N/N=C1\C[C@H]2CC[C@]1(C)C2(C)C` [Compound 8d, (E)-3-methyl-4-phenyl-2-((E)-((1R,4R)-1,7,7-trimethylbicyclo[2.2.1]heptan-2-ylidene)hydrazono)-2,3-dihydrothiazole] here?
The value was 9.

What about the “SI (CC50/IC50)” value [7] of the same molecule?
Its value is less than 2.

And the IC50 [2]?
The IC50 was 1.5 ± 0.2 µM.

And the CC50 [3]?
Its CC50 is 14 ± 2.4 µM.

And the CC50 [5]?
The CC50 was less than 44.2 µM.

And the IC50 [6]?
Its IC50 is 26.5 ± 5.9 µM.

Which IC50 [9] does the source give for `CCN1CCN(CCC(=O)N[C@@H]2C[C@H]3CC[C@]2(C)C3(C)C)CC1` [IIIa] here?
The IC50 was 0.6 µM.

And the SI [9]?
Its SI is 908.

With `CC1(C)[C@@H]2CC[C@@]1(C)[C@H](NC(=O)CN1CCOCC1)C2` [IIIb] as the molecule, how does the IC50 [9] read?
Its IC50 is 5.7 µM.

And the SI [9]?
The SI was 147.

And the IC50 [10]?
The IC50 was 12.5 µM.

What about the SI [10] of the same molecule?
The SI was 40.

Which IC50 [11] does the source give for `CC1(C)[C@H]2CC[C@]1(C)[C@H](OC(=O)CN1CCOCC1)C2` [IIa] here?
The IC50 was 7.1 µM.

What about the SI [11] of the same molecule?
The SI was 82.

What about the IC50 [9] of the same molecule?
Its IC50 is 24.9 µM.

And the SI [9]?
The SI was 13.

What about the IC50 [10] of the same molecule?
The IC50 was 17.9 µM.

What about the SI [10] of the same molecule?
Its SI is 56.

With `CN1CCN(CC(=O)O[C@@H]2C[C@@H]3CC[C@@]2(C)C3(C)C)CC1` [IIb] as the molecule, how does the IC50 [11] read?
The IC50 was 4.4 µM.

And the SI [11]?
Its SI is 23.

And the IC50 [9]?
The IC50 was 6.8 µM.

And the SI [9]?
The SI was 46.

Which results are given for `CC1(C)[C@@H]2CC[C@@]1(CS(=O)(=O)N1CCOCC1)C(=O)C2` [IVa]?
IC50 [9]: 0.9 µM; SI [9]: 921

What does the source list for `CC1(C)[C@@H]2CC[C@@]1(CS(=O)(=O)n1cncn1)C(=O)C2` [IVb]?
IC50 [9]: 1 µM; SI [9]: 1764

Which IC50 [9] does the source give for `CC1CCN(CCC(=O)O[C@@H]2C[C@@H]3CC[C@@]2(C)C3(C)C)CC1` [Ia] here?
Its IC50 is 0.3 µM.

What about the SI [9] of the same molecule?
Its SI is 956.

With `CC1(C)[C@H]2CC[C@]1(C)[C@H](OC(=O)CCN1CCOCC1)C2` [Ib] as the molecule, how does the IC50 [11] read?
Its IC50 is 12.2 µM.

What about the SI [11] of the same molecule?
Its SI is 45.

What about the IC50 [10] of the same molecule?
The IC50 was 3.5 µM.

What about the SI [10] of the same molecule?
The SI was 48.

With `CN1CCN(CCC(=O)O[C@@H]2C[C@@H]3CC[C@@]2(C)C3(C)C)CC1` [Ic] as the molecule, how does the IC50 [11] read?
Its IC50 is 1.9 µM.

What about the SI [11] of the same molecule?
The SI was 215.

What about the IC50 [9] of the same molecule?
The IC50 was 0.3 µM.

And the SI [9]?
Its SI is 870.

Which IC50 [10] does the source give for `CC1(C)[C@@H]2CC[C@@]1(C)/C(=N/Nc1nc(-c3ccc(Cl)cc3)cs1)C2` [Va] here?
The IC50 was 2.7 µM.

And the SI [10]?
The SI was 24.

Which results are given for `CC1(C)[C@@H]2CC[C@@]1(C)/C(=N/Nc1nc(-c3ccc(Br)cc3)cs1)C2` [Vb]?
IC50 [10]: 2.4 µM; SI [10]: 32

With `COc1ccc(-c2csc(N/N=C3\C[C@H]4CC[C@]3(C)C4(C)C)n2)cc1` [Vc] as the molecule, how does the IC50 [10] read?
Its IC50 is 3.7 µM.

And the SI [10]?
Its SI is 26.
